≈ marks a conversion by molar mass, not a printed value.
Experiments:
[1] = tested on: MSSA ATCC25923; assay: Membrane damaging properties, SYTOX Green fluorescence (Example 4); format: cell-based, Staphylococcus aureus; details: 37° C., 15 minutes, EGCG derivative 4-32, EGCG 8-128, NISIN 1-8 μg/ml, FIG. 3
Method: (§1) As an antibacterial agent, the EGCG-C16 prepared in Example 1 was used in Example 4; EGCG was used in Comparative Example 4; and membrane-damaging peptide NISIN (MP Biomedicals) was used in a reference example. Antibacterial agent solutions of EGCG-C16 and EGCG were prepared by dissolving them in DMSO so as to achieve top concentrations, respectively. An antibacterial agent solution of the other antibacterial agent was prepared by dissolving it in PBS and diluted with PBS as appropriate. The influence of DMSO used for dissolving the antibacterial agents also was considered.
MSSA ATCC25923 and MRSA ATCC43300 were subjected to shaking culture in MH-broths (Difco) until they reached a late stage in the exponential growth phase. The thus-obtained culture solutions were each centrifuged at 7000 rpm for 10 minutes, and bacterial cells that had settled were suspended in PBS. The suspension of the bacterial cells was added to wells of a 384 black plate, and each of the antibacterial agent solutions was further added thereto and mixed. The resultant mixture was incubated at 37° C. for 15 minutes. Subsequently, a dead cell-staining dye (trade name “SYTOX Green”, LONZA) was mixed in each well so that the concentration thereof became 10 μmol/l, and the resultant mixture was incubated at 37° C. for 10 minutes. […] On the other hand, as a control, the fluorescence intensity was measured in the same manner, except that PBS or 10% DMSO was added instead of the antibacterial agent solutions. Then, regarding each of the MSSA and MRSA, the ratio of the fluorescence intensity when each of the agents was added was calculated assuming that the fluorescence intensity obtained in the control (PBS) was 1.

[2] = tested on: MRSA ATCC43300; assay: as above; format: cell-based, Staphylococcus aureus; details: 37° C., 15 minutes, EGCG derivative 4-32, EGCG 8-128, NISIN 1-8 μg/ml, FIG. 3
Method: as §1
MSSA ATCC25923 and MRSA ATCC43300 were subjected to shaking culture in MH-broths (Difco) until they reached a late stage in the exponential growth phase. The thus-obtained culture solutions were each centrifuged at 7000 rpm for 10 minutes, and bacterial cells that had settled were suspended in PBS. The suspension of the bacterial cells was added to wells of a 384 black plate, and each of the antibacterial agent solutions was further added thereto and mixed. The resultant mixture was incubated at 37° C. for 15 minutes. Subsequently, a dead cell-staining dye (trade name “SYTOX Green”, LONZA) was mixed in each well so that the concentration thereof became 10 μmol/l, and the resultant mixture was incubated at 37° C. for 10 minutes. The final concentrations of the respective antibacterial agents were as follows: 4, 8, 16, and 32 μg/ml for the EGCG derivative; 8, 16, 32, 64, and 128 μg/ml for EGCG; and 1, 2, 4, and 8 μg/ml for NISIN. […] On the other hand, as a control, the fluorescence intensity was measured in the same manner, except that PBS or 10% DMSO was added instead of the antibacterial agent solutions. Then, regarding each of the MSSA and MRSA, the ratio of the fluorescence intensity when each of the agents was added was calculated assuming that the fluorescence intensity obtained in the control (PBS) was 1.

[3] = tested on: methicillin-resistant Staphylococcus aureus (MRSA) ATCC43300; assay: MIC, broth microdilution (Example 1); format: cell-based; details: for MIC: MRSA ATCC43300, MH-broth, 37° C., 18 hours
Method: (§2) Methicillin-susceptible Staphylococcus aureus (MSSA) NCTC8325 and methicillin-resistant Staphylococcus aureus (MRSA) ATCC43300 were used as bacteria. The bacteria of each type were cultured using Mueller-Hinton Broth (MH-broth, Difco) as a medium. Then, the minimum inhibitory concentration (MIC) of each of the EGCG derivatives was measured by a broth microdilution method in accordance with the Clinical and Laboratory Standards Institute (CLSI) guidelines (hereinafter the same).
(§3) First, each of the EGCG derivatives was dissolved in 100% dimethyl sulfoxide (DMSO, Wako Pure Chemical Industries, Ltd.) so that the concentration thereof became 5120 μg/ml. The resultant solution was diluted with DMSO or sterile distilled water so as to prepare two-fold dilution series of antibacterial agent solutions. […] Each of these antibacterial agent solutions was dispensed to wells of a 96-well plate. The concentration of the EGCG derivative in the antibacterial agent solution dispensed to the wells was set to be 10 times as high as the final concentration. On the other hand, the bacteria were cultured in the MH-broth at 37° C. overnight, and the thus-obtained pre-culture solution was diluted with a new MH-broth so that the concentration thereof in the MH-broth became 10^−4 (10^4-fold dilution), thus preparing a bacterial culture solution of about 1×10^5 CFU/ml (CFU: Colony Forming Unit, the number of viable cells). The bacterial culture solution was further added to each well, and the mixture was cultured at 37° C. for 18 hours. The ratio (volume ratio) between the antibacterial agent solution and the bacterial culture solution added to each well was set to 1:9 (the antibacterial agent solution:the bacterial culture solution), and the volume of the mixture of them per well was set to 100 μl in total. The final concentration of the EGCG derivative in the mixture was set to 8 μg/ml to 512 μg/ml, and the number of viable cells in the mixture was set to about 1×10^5 CFU/ml. Then, after the completion of the culture, the MIC was determined. Also, the turbidity (OD600 nm) was measured using a plate reader so as to identify minor differences.
(§4) As Comparative Example 1, the same procedures as in Example 1 were performed, except that unsubstituted EGCG was used as an antibacterial agent instead of the EGCG derivatives of Example 1. Furthermore, as a control, the same procedures as in Example 1 were performed, except that sterile distilled water, 100% DMSO, or 50% DMSO was used instead of the antibacterial agent solutions containing the EGCG derivatives.

[4] = tested on: Methicillin-susceptible Staphylococcus aureus (MSSA) NCTC8325; assay: MIC, broth microdilution (Example 1); format: cell-based; details: MH-broth, 37° C., 18 hours
Method: as §2, §3, §4

[5] = tested on: MSSA ATCC25923; assay: MIC with addition of PG, LPS or D-Ala-D-Ala (Example 3); format: cell-based, Staphylococcus aureus; details: for MIC: MSSA (ATCC25923); for change in MIC by the addition of PG: MSSA ATCC25923, PG 30 μg/ml
Method: (§5) Regarding EGCG-C16, whether or not the antibacterial action thereof against MSSA and MRSA is inhibited by the addition of: peptidoglycan (PG) or D-Ala-D-Ala, which are each a cell wall component; or lipopolysaccharide (LPS), which is an outer membrane component, was examined. The MIC measurement was carried out in the manner described in Section (2) of Example 2.
(§6) In Example 3, EGCG-C16 prepared in Example 1 was used as an antibacterial agent. In Comparative Example 3, unsubstituted EGCG was used as an antibacterial agent. […] Antibacterial agent solutions of EGCG-C16 and EGCG were prepared in the same manner as described in Section (2) of Example 1. Antibacterial agent solutions of the antibacterial agents other than EGCG-C16 and EGCG were prepared by dissolving them in PBS.
(§7) As additives, PG (Peptidoglycan Staphylococcus aureus, SIGMA-ALDRICH), D-Ala-D-Ala (SIGMA-ALDRICH), and LPS (Lipopolysaccharide Salmonella, SIGMA-ALDRICH) were provided. Each of the additives was dissolved in PBS, and the resultant solution was used as an additive solution.
(§8) Dilution series of the antibacterial agent solutions were prepared. Each of them was dispensed to a 96-well plate. Further, the additive solution was added thereto and mixed. After that, a bacterial culture solution of MRSA ATCC43300 or MSSA ATCC25923 was added thereto and cultured at 37° C. for 18 hours. In the mixture of the antibacterial agent solution, the additive solution, and the bacterial culture solution, the final concentrations of PG, D-Ala-D-Ala, and LPS were each set to 30 μg/ml. Unless otherwise stated, the minimum inhibitory concentration (MIC) was calculated in the same manner as described in Section (2) of Example 2.

[6] = tested on: MRSA ATCC43300; assay: as above; format: cell-based, Staphylococcus aureus; details: for MIC: MRSA (ATCC43300); for change in MIC by the addition of PG: MRSA ATCC43300, PG 30 μg/ml
Method: as §5, §6, §7, §8

[7] = +D-Ala-D-Ala (30 μg/mL), lower part of Table 9
[8] = +LPS (30 μg/mL), upper part of Table 9
[9] = +PG (30 μg/mL), lower part of Table 9 (PG/D-Ala-D-Ala series)
[10] = MH-broth free of additives, lower part of Table 9 (PG/D-Ala-D-Ala series)
[11] = MH-broth free of additives, upper part of Table 9 (PG/LPS series)
[12] = +PG (30 μg/mL), upper part of Table 9 (PG/LPS series)

Molecule	MIC [5, 7] [µg/mL]	MIC [5, 8] [µg/mL]	MIC [5, 9] [µg/mL]	MIC [5, 10] [µg/mL]	MIC [5, 11] [µg/mL]	MIC [6, 7] [µg/mL]	MIC [6, 8] [µg/mL]	MIC [6, 9] [µg/mL]	MIC [6, 12] [µg/mL]	MIC [6, 10] [µg/mL]	MIC [6, 11] [µg/mL]	also measured
NISIN [reference compound]	–	–	–	–	–	–	–	–	–	–	–	fluorescence intensity ratio of SYTOX Green (control PBS = 1) [1]: very high fluorescence intensity ratio; fluorescence intensity ratio of SYTOX Green (control PBS = 1) [2]: very high fluorescence intensity ratio
EGCG-eicosanoate [EGCG-C20]	–	–	–	–	–	–	–	–	–	–	–	MIC [3]: 128 µg/mL
EGCG-octanonate [EGCG-C8]	–	–	–	–	–	–	–	–	–	–	–	MIC [4]: 8 µg/mL
CC1(C)S[C@@H]2[C@H](NC(=O)[C@H](N)c3ccccc3)C(=O)N2[C@H]1C(=O)O [ABPC, ampicillin]	0.25 (≈ 0.715 µM)	0.25 (≈ 0.715 µM)	0.25 (≈ 0.715 µM)	0.25 (≈ 0.715 µM)	0.25 (≈ 0.715 µM)	16 (≈ 45.8 µM)	32 (≈ 91.6 µM)	8 (≈ 22.9 µM)	32 (≈ 91.6 µM)	16 (≈ 45.8 µM)	32 (≈ 91.6 µM)	–
EGCG-laurate [EGCG-C12]	–	–	–	–	–	–	–	–	–	–	–	MIC [4]: 8 µg/mL; MIC [3]: 16 µg/mL; inhibition of propagation (MIC, turbidity OD600 nm) ([3]; MRSA, FIG. 1 and Table 3): remarkable propagation-inhibiting effect
CN[C@H](CC(C)C)C(=O)N[C@H]1C(=O)N[C@@H](CC(N)=O)C(=O)N[C@H]2C(=O)N[C@H]3C(=O)N[C@H](C(=O)N[C@H](C(=O)O)c4cc(O)cc(O)c4-c4cc3ccc4O)[C@H](O)c3ccc(c(Cl)c3)Oc3cc2cc(c3O[C@@H]2O[C@H](CO)[C@@H](O)[C@H](O)[C@H]2O[C@H]2C[C@](C)(N)[C@H](O)[C@H](C)O2)Oc2ccc(cc2Cl)[C@H]1O [VCM, vancomycin]	16 (≈ 11 µM)	2 (≈ 1.38 µM)	2 (≈ 1.38 µM)	1 (≈ 0.69 µM)	2 (≈ 1.38 µM)	16 (≈ 11 µM)	2 (≈ 1.38 µM)	2 (≈ 1.38 µM)	4 (≈ 2.76 µM)	1 (≈ 0.69 µM)	2 (≈ 1.38 µM)	MIC [5, 12]: 4 µg/mL (≈ 2.76 µM); change in MIC by the addition of PG [5]: doubled; change in MIC by the addition of PG [6]: doubled
teicoplanin	32	1	2	1	1	16	1	1	1	0.5	0.5	MIC [5, 12]: 2 µg/mL; change in MIC by the addition of PG [5]: doubled; change in MIC by the addition of PG [6]: doubled
